ChEMBL document CHEMBL5331077, “Combining pharmacophore models derived from DNA-encoded chemical libraries with structure-based exploration to predict Tankyrase 1 inhibitors” (Eur J Med Chem, 2023)
The source made the active and inactive calls. The calls are words filed in the database; no cut-off is given here.

Biological target: T1, Protein mono-ADP-ribosyltransferase PARP15 (Homo sapiens) (UniProt Q460N3)
T1 sequence (whole entry): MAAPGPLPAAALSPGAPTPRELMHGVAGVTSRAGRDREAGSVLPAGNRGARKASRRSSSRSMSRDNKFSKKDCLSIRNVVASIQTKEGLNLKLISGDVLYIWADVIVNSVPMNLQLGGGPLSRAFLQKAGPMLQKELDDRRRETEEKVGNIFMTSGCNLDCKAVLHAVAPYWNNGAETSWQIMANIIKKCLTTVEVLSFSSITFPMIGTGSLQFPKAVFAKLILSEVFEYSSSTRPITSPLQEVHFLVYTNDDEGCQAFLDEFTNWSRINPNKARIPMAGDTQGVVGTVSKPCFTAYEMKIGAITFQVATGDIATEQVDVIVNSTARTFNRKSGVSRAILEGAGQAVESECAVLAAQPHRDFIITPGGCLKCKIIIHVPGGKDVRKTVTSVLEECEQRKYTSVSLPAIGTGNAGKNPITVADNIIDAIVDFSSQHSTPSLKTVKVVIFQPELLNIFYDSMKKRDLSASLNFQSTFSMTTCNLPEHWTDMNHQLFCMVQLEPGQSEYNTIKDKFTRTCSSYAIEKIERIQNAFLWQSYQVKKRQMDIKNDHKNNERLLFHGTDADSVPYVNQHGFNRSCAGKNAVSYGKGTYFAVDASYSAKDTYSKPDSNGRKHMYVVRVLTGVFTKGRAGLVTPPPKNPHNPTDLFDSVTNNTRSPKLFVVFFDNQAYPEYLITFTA
Experiment: Inhibition of PARP15 (unknown origin)

CNC(=O)[C@H](CNC(=O)CCn1c(=O)[nH]c(=O)c2ccccc21)NC(=O)c1cnc2ccccc2c1
inhibition: inactive

Cc1cc(OCC(=O)NCCNC(=O)c2cccc(COc3ccccc3C(N)=O)c2)c2c3c(c(=O)oc2c1)CCC3
inhibition: Active
